Laboratory results from patent US10821091B2, “Retinoid compositions and methods of increasing immune cell-mediated killing of IDH mutant cancer cells” (UNIVERSITY OF PITTSBURGH—OF THE COMMONWEALTH SYSTEM OF …, priority 2017, dated 2020).

Tests used:
[1] = mouse, in vivo
Experimental: Mice. 6-8 week old Balb/c nude mice (CAnN.Cg-Foxn1nu/Crl) were purchased from Charles River Laboratories. Mice were injected with 10^6 IDH WT or mutant primary glioma cells sub-cutaneously in the right flank. When the tumors were about 25 mm^2, ATRA treatment was started. 10 mg/Kg ATRA was administered to mice intra-peritoneally (i.p.) every alternate day until termination of the experiment. DMSO-treated mice were used as controls. The mice were monitored for signs of drug toxicity such as weight-loss, lethargy, skin lesions and diarrhea. The tumors were measured every 3 days, and the mice were sacrificed when the tumors were about 400 mm^2. For NK depletion experiments, 6-week old B6 nude mice (B6.Cg-Foxn1nu/J) were purchased from The Jackson Laboratory. NK depletion was performed by injecting mice with 200 μg of anti-NK1.1 antibody (Biolegend) i.p. on the day ATRA treatment was started. Mice injected with 200 μg of an isotype antibody were used as controls. Mice were bled and evaluated for circulating NKs by flow cytometry.
Retinoic acid has been used as a chemotherapeutic agent in a wide variety of cancers, in pre-clinical as well as clinical applications. 13-cis-RA is the most common form of RA used in clinics, and is effective in a variety of neoplasms. Therefore, the efficacy of 13-cis RA was compared with ATRA and Bexarotene (a synthetic retinoic acid analogue) in IDH mutant gliomas.

[2] = system: RBP1-transduced IDH mutant cells; test: RBP1 overexpression with retinol: NK cytotoxicity and gene expression; type: cell-based, human
Experimental: For RBP1 overexpression studies, IDH mutant glioma cells were transduced with RBP1 expressing lentiviral vectors (Origene Inc) for 3 hours. The cells were maintained in CM containing 10 μg/ml Puromycin to select for lentivirus-transduced cells. Cells transduced with a mock lentiviral vector were used as controls.
NK cytotoxicity assay. The flow cytometric CFSE/7-AAD cytotoxicity assay was performed as previously described with slight modifications. Astrocytes or Glioma cells (5×10^5) were labeled with 500 nM CFSE (from a 1 mM stock solution in dimethyl sulfoxide [Sigma] stored at −20° C.) in PBS for 15 min at 37° C. The cells were then washed twice in complete medium and used immediately for the cytotoxicity assay. The CFSE-labeled target cells (25,000 cells) were used at E (effector):T (target) ratios of 1:10. After 6 h incubation, the cells were stained with 0.25 μg/ml of 7-AAD and analyzed by flow cytometry.
Quantitative Real time RT-PCR. 5×10^5 IDH mutant and WT astrocytes, as well as patient glioma cells were lyzed in Trizol and RNA was extracted from the cells using the Chloroform extraction method. cDNA was transcribed from the RNA using iScript cDNA synthesis kit (BioRad). Real-time PCR was performed on an CFX96 Touch™ Real-Time PCR Detection System (Bio-Rad) equipped with a 96-well reaction plate. Briefly, 2 μL cDNA was added to 5 μL of the 2×SYBR Green PCR mastermix (Thermo Scientific), 800 nM of each primer, and water was added to 10 μL. The thermal denaturation protocol was run at the end of the PCR to determine the number of products that were present in the reaction. Reactions were typically run in triplicates. The cycle number at which the reaction crossed an arbitrarily-placed threshold (CT) was determined for each gene and the relative amount of each gene to 18 S rRNA was described using the equation 2^−ΔCT where ΔCT=(CTtargetRNA−CT18S rRNA).
RBP1 overexpression reverses immune evasion in IDH mutant gliomas. […] Cells were analyzed for NK cytotoxicity and gene expression of RA pathway genes. […]

[3] = retinol added to RBP1-transduced IDH mutant cells, to wild type expression levels

For `CC1=C(/C=C/C(C)=C/C=C/C(C)=C\C(=O)O)C(C)(C)CCC1` [13-cis RA, 13-cis retinoic acid], the “toxicity in treated mice (weight loss and wasting)” value [1] was “Higher levels of toxicity”.

With `C=C(c1ccc(C(=O)O)cc1)c1cc2c(cc1C)C(C)(C)CCC2(C)C` [Bexarotene] the “toxicity in treated mice (weight loss and wasting)” value [1] was “Higher levels of toxicity”.

With `CC1=C(/C=C/C(C)=C/C=C/C(C)=C/CO)C(C)(C)CCC1` [retinol] the “recognition and killing by NK cells” value ([2]; 10 μM retinol in medium of RBP1-transduced IDH mutant cells) was “significantly increased recognition and killing by NK cells”, the “expression of NKG2D ligands (ULBP1, ULBP3)” value [2, 3] was “restored expression” and the “expression of RA pathway genes” value [2, 3] was “restored expression”.
